Patent publication US20030026766A1 (priority 2000, published 2003)

Target: T1, glucocorticoid receptor (Homo sapiens, UniProt P04150)
T1 sequence (P04150 1-777): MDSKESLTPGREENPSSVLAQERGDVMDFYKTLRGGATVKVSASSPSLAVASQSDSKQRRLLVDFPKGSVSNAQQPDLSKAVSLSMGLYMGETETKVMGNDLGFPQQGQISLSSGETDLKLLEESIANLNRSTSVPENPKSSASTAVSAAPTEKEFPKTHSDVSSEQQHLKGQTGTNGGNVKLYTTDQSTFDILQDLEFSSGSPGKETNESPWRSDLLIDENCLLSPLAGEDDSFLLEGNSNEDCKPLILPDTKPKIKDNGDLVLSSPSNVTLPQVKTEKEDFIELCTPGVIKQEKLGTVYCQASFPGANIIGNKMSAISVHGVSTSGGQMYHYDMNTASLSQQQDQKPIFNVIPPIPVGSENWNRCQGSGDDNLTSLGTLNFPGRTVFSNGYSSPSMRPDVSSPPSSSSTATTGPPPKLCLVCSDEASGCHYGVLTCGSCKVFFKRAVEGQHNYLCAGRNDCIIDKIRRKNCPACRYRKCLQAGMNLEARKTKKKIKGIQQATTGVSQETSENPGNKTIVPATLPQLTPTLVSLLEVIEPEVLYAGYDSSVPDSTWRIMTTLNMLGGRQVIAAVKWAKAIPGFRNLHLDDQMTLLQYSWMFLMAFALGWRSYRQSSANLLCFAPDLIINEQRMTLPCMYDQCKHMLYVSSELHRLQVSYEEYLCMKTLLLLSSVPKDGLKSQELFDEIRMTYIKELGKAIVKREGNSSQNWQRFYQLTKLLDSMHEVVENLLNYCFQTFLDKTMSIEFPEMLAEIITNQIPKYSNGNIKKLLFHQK
Experiment: Western Blot analysis of glucocorticoid receptor translocation into the nucleus in U937 cells
Conditions: nuclear extract, GR band at approximately 94 kDa by densitometry, control = 100, proportional to increase in GR translocation into the nucleus

% Change in Band Density: 183 ± 12%
SMILES: OCc1cc(C(O)CNCCCCCCOCCCCc2ccccc2)ccc1O (stereo not shown) [Salmeterol]
